{"source": "patent US20210269434A1", "about": "“TRICYCLIC COMPOUNDS AS INHIBITORS OF KRAS” (Incyte Corporation, priority 2020, published 2021)", "data": [{"biological_target": "KRAS G12D (Homo sapiens, UniProt P01116, G12D)", "sequence (P01116 1-188 isoform P01116-2 G12D)": "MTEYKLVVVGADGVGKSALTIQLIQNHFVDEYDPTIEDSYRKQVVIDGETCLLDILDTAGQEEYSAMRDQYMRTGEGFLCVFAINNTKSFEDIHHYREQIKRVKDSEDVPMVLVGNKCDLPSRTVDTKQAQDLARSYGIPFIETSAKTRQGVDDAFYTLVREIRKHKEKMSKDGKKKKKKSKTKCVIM", "experiment": "GDP-GTP exchange assay (KRAS_G12D exchange)", "format": "biochemical", "details": "bodipy loaded KRAS G12D 2.5 nM; 4 hours incubation after GppNHp-SOS1; read-out: G12D_exchange", "method": "Example A. GDP-GTP Exchange Assay\nThe inhibitor potency of the exemplified compounds was determined in a fluorescence based guanine nucleotide exchange assay, which measures the exchange of bodipy-GDP (fluorescently labeled GDP) for GppNHp (Non-hydrolyzable GTP analog) to generate the active state of KRAS in the presence of SOS1 (guanine nucleotide exchange factor). Inhibitors were serially diluted in DMSO and a volume of 0.1 μL was transferred to the wells of a black low volume 384-well plate. 5 μL/well volume of bodipy-loaded KRAS G12C diluted to 5 nM in assay buffer (25 mM Hepes pH 7.5, 50 mM NaCl, 10 mM MgCl2 and 0.01% Brij-35) was added to the plate and pre-incubated with inhibitor for 2 hours at ambient temperature. Appropriate controls (enzyme with no inhibitor or with a G12C inhibitor (AMG-510)) were included on the plate. The exchange was initiated by the addition of a 5 μL/well volume containing 1 mM GppNHp and 300 nM SOS1 in assay buffer. The 10 μL/well reaction concentration of the bodipy-loaded KRAS G12C, GppNHp, and SOS1 were 2.5 nM, 500 uM, and 150 nM, respectively. The reaction plates were incubated at ambient temperature for 2 hours, a time estimated for complete GDP-GTP exchange in the absence of inhibitor. For the KRAS G12D and G12V mutants, similar guanine nucleotide exchange assays were used with 2.5 nM as final concentration for the bodipy loaded KRAS proteins and with 4 hours and 3 hours incubation after adding GppNHp-SOS1 mixture for G12D and G12V respectively. A cyclic peptide described to selectively bind G12D mutant (Sakamoto et al., BBRC 484.3 (2017), 605-611) or internal compounds with confirmed binding were used as positive controls in the assay plates. Fluorescence intensities were measured on a PheraStar plate reader instrument (BMG Labtech) with excitation at 485 nm and emission at 520 nm.\nEither GraphPad prism or XLfit was used to analyze the data. The IC50 values were derived by fitting the data to a four parameter logistic equation producing a sigmoidal dose-response curve with a variable Hill coefficient. Prism equation: Y=Bottom+(Top−Bottom)/(1+10^((Log lC50−X)*Hill slope)); XLfit equation: Y=(A+((B−A)/(1+((X/C)^D)))) where X is the logarithm of inhibitor concentration and Y is the response.", "units": {"IC50": "nM"}, "values": [{"smiles": "Cc1ccc2cc(O)cc(-c3c(Cl)cc4c(nc(N5CC(N(C)C)C5)c5ncn([C@H]6[C@H]7CN[C@@H]6C7)c54)c3F)c2c1", "note": "[Example 24, 4-(1-((endo)-2-azabicyclo[2.1.1]hexan-5-yl)-8-chloro-4-(3-(dimethylamino)-azetidin-1-yl)-6-fluoro-1H-imidazo[4,5-c]quinolin-7-yl)-6-methylnaphthalen-2-ol]", "IC50": "1000 to 5000"}, {"smiles": "CN(C)C1CN(c2nc3c(F)c(-c4cc(O)cc5ccccc45)c(Cl)cc3c3c2nc(CCN)n3[C@H]2[C@H]3CN[C@@H]2C3)C1", "note": "[Example 76, 4-(2-(2-aminoethyl)-1-((endo)-2-azabicyclo[2.1.1]hexan-5-yl)-8-chloro-4-(3-(dimethylamino)azetidin-1-yl)-6-fluoro-1H-imidazo[4,5-c]quinolin-7-yl)naphthalen-2-ol]", "IC50": "100 to 1000"}, {"smiles": "CN(C)C1CN(c2nc3c(F)c(-c4cc(O)cc5ccccc45)c(Cl)cc3c3c2nc(-c2cn(C)cn2)n3[C@H]2[C@H]3CN[C@@H]2C3)C1", "note": "[Example 78, 4-(1-((endo)-2-azabicyclo[2.1.1]hexan-5-yl)-8-chloro-4-(3-(dimethylamino)-azetidin-1-yl)-6-fluoro-2-(1-methyl-1H-imidazol-4-yl)-1H-imidazo[4,5-c]quinolin-7-yl)naphthalen-2-ol]", "IC50": "100 to 1000"}, {"smiles": "CN(C)C(=O)CCc1nc2c(N3CC(N(C)C)C3)nc3c(Oc4ccccc4)c(-c4cc(O)cc5ccccc45)c(CCC#N)cc3c2n1C1C2CNC1C2", "note": "(stereo not drawn) [Example 293, 3-(1-((endo)-2-azabicyclo[2.1.1]hexan-5-yl)-8-(2-cyanoethyl)-4-(3-(dimethylamino)azetidin-1-yl)-7-(3-hydroxynaphthalen-1-yl)-6-phenoxy-1H-imidazo[4,5-c]quinolin-2-yl)-N,N-dimethylpropanamide]", "IC50": "100 to 1000"}, {"smiles": "CNC(=O)c1cc(-c2nc3c(F)c(-c4cc(O)cc5ccccc45)c(CCC#N)cc3c3c2nc(CCC(=O)N(C)C)n3C2C3CNC2C3)ccc1F", "note": "(stereo not drawn) [Example 297, 5-(1-((endo)-2-azabicyclo[2.1.1]hexan-5-yl)-8-(2-cyanoethyl)-2-(3-(dimethylamino)-3-oxopropyl)-6-fluoro-7-(3-hydroxynaphthalen-1-yl)-1H-imidazo[4,5-c]quinolin-4-yl)-2-fluoro-N-methylbenzamide]", "IC50": "≤ 100"}, {"smiles": "CN(C)C(=O)CCc1nc2c(-c3ccc(=O)n(C)c3)nc3c(F)c(-c4cc(O)cc5ccccc45)c(CCC#N)cc3c2n1C1C2CNC1C2", "note": "(stereo not drawn) [Example 298, 3-(1-((endo)-2-azabicyclo[2.1.1]hexan-5-yl)-8-(2-cyanoethyl)-6-fluoro-7-(3-hydroxynaphthalen-1-yl)-4-(1-methyl-6-oxo-1,6-dihydropyridin-3-yl)-1H-imidazo[4,5-c]quinolin-2-yl)-N,N-dimethylpropanamide]", "IC50": "≤ 100"}, {"smiles": "CN(C)C(=O)CCc1nc2c(N3CC(N(C)C)C3)nc3c(F)c(-c4cc(O)cc5ccccc45)c(Cc4ccccc4C#N)cc3c2n1C1C2CNC1C2", "note": "(stereo not drawn) [Example 299, 3-(1-((endo)-2-azabicyclo[2.1.1]hexan-5-yl)-8-(2-cyanobenzyl)-4-(3-(dimethylamino)azetidin-1-yl)-6-fluoro-7-(3-hydroxynaphthalen-1-yl)-1H-imidazo[4,5-c]quinolin-2-yl)-N,N-dimethylpropanamide]", "IC50": "≤ 100"}, {"smiles": "CN(Cc1ccccn1)C(=O)CCc1nc2c(N3CC(N(C)C)C3)nc3c(F)c(-c4cc(O)cc5ccccc45)c(CCC#N)cc3c2n1C1C2CNC1C2", "note": "(stereo not drawn) [Example 301a, 3-(1-((endo)-2-azabicyclo[2.1.1]hexan-5-yl)-8-(2-cyanoethyl)-4-(3-(dimethylamino)azetidin-1-yl)-6-fluoro-7-(3-hydroxynaphthalen-1-yl)-1H-imidazo[4,5-c]quinolin-2-yl)-N-methyl-N-(pyridin-2-ylmethyl)propanamide]", "IC50": "≤ 100"}]}]}
